We go through 3 molecules from article PMC4677984, “Activation of Muscarinic M1 Acetylcholine Receptors Induces Long-Term Potentiation in the Hippocampus” (Cerebral Cortex (New York, NY), 2015).

The target of assay [1] is T1, human M2 receptors (Homo sapiens, UniProt P08172). The conditions noted are these: over the concentration range tested. As to the method: (§1) CHO cells stably expressing recombinant human M1, M3, and M5 Rs and AV12 cells stably expressing Gα15 and recombinant human M2 or M4 Rs were cultured in DMEM with high glucose and pyridoxine hydrochloride supplemented with 5–10% heat-inactivated fetal bovine serum, 10–20 mM HEPES, 1 mM L-glutamine, 1% penicillin/streptomycin solution and selection agents, 0.5 mg/mL geneticin, or 0.3 µg/mL puromycin. Confluent cultures were passaged weekly and cells harvested 24 h prior to assay using 0.25% trypsin–EDTA and plated at a density of 40 000–50 000 cells per well in tissue culture treated, poly-D-lysine-coated 96-well black-walled, clear bottom plates (Corning or Becton-Dickinson). For FLIPR (FLIPR-tetra, Molecular Devices) assays, media was removed and cells were incubated with 5 µM Fluo-4-AM/0.05% pluronic F-127 (Invitrogen) in a HEPES-buffered salt solution (HEPES-HBSS; composition, in mM; 135 NaCl, 5 KCl, 1.3 CaCl2, 0.5 MgCl2, 0.4 MgSO4, 0.4 KH2PO4, 4.2 NaHCO3, 0.3 Na2HPO4, 5.6 glucose, 20 HEPES, +2.5 mM probenecid for CHO cell lines, pH 7.5 adjusted with 5 M NaOH) for 1 h at room temperature, in the dark, before the media was removed and replaced with HEPES-buffered salt solution in the absence of Fluo-4. Probenecid was included to optimize dye loading in CHO cell lines. Although probenecid has been reported to interact and activate some TRP channels {McClenaghan, 2012 #2996}, there are no reports of interactions with mAChRs or nontransfected CHO cells. Plates were then transferred to FLIPR for experiments, which were also conducted at room temperature.
T1 sequence (P08172 whole entry): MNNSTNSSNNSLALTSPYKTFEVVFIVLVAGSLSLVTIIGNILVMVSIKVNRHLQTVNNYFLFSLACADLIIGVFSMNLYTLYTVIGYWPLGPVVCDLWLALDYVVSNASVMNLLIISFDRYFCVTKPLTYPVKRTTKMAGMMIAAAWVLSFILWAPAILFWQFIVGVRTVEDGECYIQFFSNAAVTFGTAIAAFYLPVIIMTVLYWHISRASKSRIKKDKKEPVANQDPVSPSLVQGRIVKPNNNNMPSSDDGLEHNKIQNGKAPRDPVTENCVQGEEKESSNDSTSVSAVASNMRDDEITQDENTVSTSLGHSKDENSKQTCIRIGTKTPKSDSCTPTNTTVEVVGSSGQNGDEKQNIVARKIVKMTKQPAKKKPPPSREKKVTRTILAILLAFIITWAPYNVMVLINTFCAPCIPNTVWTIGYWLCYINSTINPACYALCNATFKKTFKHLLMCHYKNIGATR
(§2) For data analysis, relative EC50 and IC50 values were calculated using a 4-parameter logistic curve (GraphPad Prism v6).

A further assay has as its target human M3 receptors (Homo sapiens, UniProt P20309). The conditions noted are these: over the concentration range tested. As to the method: as §1, §2
Assay [2] has as its target T2, human M4 receptors (Homo sapiens, UniProt P08173). The note with it: over the concentration range tested. On the procedure:
as §1, §2

The target of assay [3] is T3, human M5 receptors (Homo sapiens, UniProt P08912). The note with it: over the concentration range tested. On the procedure:
as §1, §2

Assay [4] has as its target T1, human M2 receptors. As to the kind of experiment: cell-based. On the procedure:
as §1, §2

For assay [5], the target named is T2, human M4 receptors. Put plainly: cell-based. On the procedure:
as §1, §2

In assay [6] the target is T3, human M5 receptors. As to the kind of experiment: cell-based. As to the method: as §1, §2
The next assay concerns the target mouse native M1Rs (Mus musculus, UniProt P12657). Put plainly: biochemical. On the procedure:
(§3) All procedures were performed at 4°C. […] Homogenate was centrifuged at 1000×g for 10 min and supernatant collected, the pellet was rehomogenized and centrifuged again, as above, and supernatant pooled and centrifuged at 11 000×g for 20 min. The resulting pellet was suspended in a final storage buffer (10 mM HEPES, 1 mM EGTA, 1 mM MgCl2, 1 mM DTT; pH 7.4) and centrifuged at 27 000×g for 20 min. Supernatant was removed and the final pellet suspended in 2 mL of final storage buffer. Protein concentration was measured using the Bradford method ([Bradford 1976]) (Coomassie Plus, Bio-Rad protein assay kit) with bovine gamma globulin standards. Samples were then aliquoted and stored at −80°C.
GTPɣ[^35S] binding in mouse WT and M1 KO hippocampal membranes were determined in triplicate using an antibody capture technique in 96-well plate format ([DeLapp et al. 1999]). Membrane aliquots (15 µg/well) from WT or M1 KO C57BL6/NTac mice were incubated with test compound and GTPɣ[^35S] (500 pM/well) for 30 min. […] Plates were left to incubate for 3 h and then centrifuged for 10 min at 2000 rpm. Plates were counted for 1 min/well using a Wallac MicroBeta Trilux scintillation counter (PerkinElmer). All incubations took place at room temperature in GTP-binding assay buffer (In mM, 20 HEPES, 100 NaCl, 5 MgCl2; pH 7.4).
as §2

Assay [7] relates to Gαq activation in M1 KO hippocampal membranes. On the procedure: as §3
GTPɣ[^35S] binding in mouse WT and M1 KO hippocampal membranes were determined in triplicate using an antibody capture technique in 96-well plate format ([DeLapp et al. 1999]). Membrane aliquots (15 µg/well) from WT or M1 KO C57BL6/NTac mice were incubated with test compound and GTPɣ[^35S] (500 pM/well) for 30 min. […] Plates were left to incubate for 3 h and then centrifuged for 10 min at 2000 rpm. Plates were counted for 1 min/well using a Wallac MicroBeta Trilux scintillation counter (PerkinElmer). […]
as §2

Assay [8] relates to CA1 pyramidal neurons. The conditions noted are these: 7 µM, WT mice 6-9 weeks.
Assay [9] concerns CA1 pyramidal neurons.
Assay [10] relates to CA1 pyramidal neurons (M1R KO). The note with it: 7 µM, M1R KO mice.
The test system of assay [11] is CA1 pyramidal neurons. The note with it: 7 µM, WT mice, NBQX + L-689,560, -55 mV.
In assay [12] the test system is CA1 pyramidal neurons (M1R KO). The conditions noted are these: 7 µM, M1R KO mice. The source holds these as a separate data set.
The target of a further assay is human M1Rs (Homo sapiens, UniProt P11229). As to the kind of experiment: cell-based.
Sequence of human M1Rs (P11229 whole entry): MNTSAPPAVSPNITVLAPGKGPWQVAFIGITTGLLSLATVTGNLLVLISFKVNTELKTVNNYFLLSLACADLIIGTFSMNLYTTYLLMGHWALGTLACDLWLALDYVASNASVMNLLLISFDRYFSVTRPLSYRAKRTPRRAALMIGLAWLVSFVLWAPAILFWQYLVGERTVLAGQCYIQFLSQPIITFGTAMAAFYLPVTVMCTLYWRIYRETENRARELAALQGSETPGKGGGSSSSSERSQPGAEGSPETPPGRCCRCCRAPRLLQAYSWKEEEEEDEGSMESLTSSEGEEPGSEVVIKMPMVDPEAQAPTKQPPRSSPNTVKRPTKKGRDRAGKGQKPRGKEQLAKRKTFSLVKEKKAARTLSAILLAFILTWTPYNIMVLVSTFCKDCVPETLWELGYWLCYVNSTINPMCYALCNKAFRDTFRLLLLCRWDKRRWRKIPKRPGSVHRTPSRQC
The next assay has as its system dopamine D2 receptors. The note with it: ref Melancon et al. 2013; cited from earlier work.
Another assay has as its system 5-HT2B receptors. The conditions noted are these: ref Melancon et al. 2013; cited from earlier work.
The test system of assay [13] is CA1 pyramidal cell firing. The note with it: studies not reported here; reversed by scopolamine.
For the next assay, the system named is cognition. The conditions noted are these: clinical study; ref Nathan et al. 2013; cited from earlier work.

Sequence of mouse native M1Rs (P12657 whole entry): as the sequence (P11229 whole entry) above, with A5V, T254S, R320K, A337G, I413V counted along it
T2 sequence (P08173 whole entry): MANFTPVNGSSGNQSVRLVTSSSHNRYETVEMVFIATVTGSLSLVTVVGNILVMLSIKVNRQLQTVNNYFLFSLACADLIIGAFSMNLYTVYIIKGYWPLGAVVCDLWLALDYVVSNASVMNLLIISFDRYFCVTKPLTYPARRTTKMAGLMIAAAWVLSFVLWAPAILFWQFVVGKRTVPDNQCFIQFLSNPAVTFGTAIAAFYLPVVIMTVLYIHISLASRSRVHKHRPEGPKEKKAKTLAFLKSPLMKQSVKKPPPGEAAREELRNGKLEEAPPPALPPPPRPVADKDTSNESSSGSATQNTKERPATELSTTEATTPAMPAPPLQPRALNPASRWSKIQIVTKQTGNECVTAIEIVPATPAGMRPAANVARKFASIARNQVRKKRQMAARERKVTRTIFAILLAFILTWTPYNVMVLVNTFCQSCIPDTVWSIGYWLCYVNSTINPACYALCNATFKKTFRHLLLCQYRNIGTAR
T3 sequence (P08912 whole entry): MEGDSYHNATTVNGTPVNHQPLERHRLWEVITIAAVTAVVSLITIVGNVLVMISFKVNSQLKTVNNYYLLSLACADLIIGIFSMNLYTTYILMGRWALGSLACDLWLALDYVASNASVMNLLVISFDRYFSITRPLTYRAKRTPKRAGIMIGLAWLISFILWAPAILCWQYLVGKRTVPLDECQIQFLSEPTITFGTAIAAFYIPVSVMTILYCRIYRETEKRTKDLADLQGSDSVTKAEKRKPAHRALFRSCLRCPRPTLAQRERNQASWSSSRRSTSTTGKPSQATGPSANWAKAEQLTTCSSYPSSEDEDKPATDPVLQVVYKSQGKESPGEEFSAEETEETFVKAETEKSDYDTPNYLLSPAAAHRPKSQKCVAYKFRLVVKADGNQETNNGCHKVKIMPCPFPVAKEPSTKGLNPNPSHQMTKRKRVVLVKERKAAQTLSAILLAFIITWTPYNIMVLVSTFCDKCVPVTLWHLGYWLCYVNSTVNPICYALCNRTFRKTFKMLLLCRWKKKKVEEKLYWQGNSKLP
Sequence of human M3 receptors (P20309 whole entry): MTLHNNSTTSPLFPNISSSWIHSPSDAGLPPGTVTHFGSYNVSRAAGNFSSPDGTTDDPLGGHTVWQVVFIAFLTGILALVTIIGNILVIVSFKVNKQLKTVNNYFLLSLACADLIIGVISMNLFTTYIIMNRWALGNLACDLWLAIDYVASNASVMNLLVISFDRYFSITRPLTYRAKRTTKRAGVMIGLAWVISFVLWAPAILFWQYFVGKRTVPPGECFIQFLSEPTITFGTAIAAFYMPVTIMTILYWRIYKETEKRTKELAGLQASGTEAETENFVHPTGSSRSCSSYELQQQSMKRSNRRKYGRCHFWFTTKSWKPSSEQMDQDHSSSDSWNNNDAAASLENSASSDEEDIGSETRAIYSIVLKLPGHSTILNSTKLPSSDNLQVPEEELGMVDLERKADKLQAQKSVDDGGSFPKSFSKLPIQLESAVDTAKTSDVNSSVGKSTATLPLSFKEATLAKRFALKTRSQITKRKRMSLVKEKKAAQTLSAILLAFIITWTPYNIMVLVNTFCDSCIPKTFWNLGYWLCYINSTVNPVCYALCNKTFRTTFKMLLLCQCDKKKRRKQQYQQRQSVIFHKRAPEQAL
Description for human M1Rs: CHO cells stably expressing recombinant human M1, M3, and M5 Rs and AV12 cells stably expressing Gα15 and recombinant human M2 or M4 Rs were cultured in DMEM with high glucose and pyridoxine hydrochloride supplemented with 5–10% heat-inactivated fetal bovine serum, 10–20 mM HEPES, 1 mM L-glutamine, 1% penicillin/streptomycin solution and selection agents, 0.5 mg/mL geneticin, or 0.3 µg/mL puromycin. Confluent cultures were passaged weekly and cells harvested 24 h prior to assay using 0.25% trypsin–EDTA and plated at a density of 40 000–50 000 cells per well in tissue culture treated, poly-D-lysine-coated 96-well black-walled, clear bottom plates (Corning or Becton-Dickinson). For FLIPR (FLIPR-tetra, Molecular Devices) assays, media was removed and cells were incubated with 5 µM Fluo-4-AM/0.05% pluronic F-127 (Invitrogen) in a HEPES-buffered salt solution (HEPES-HBSS; composition, in mM; 135 NaCl, 5 KCl, 1.3 CaCl2, 0.5 MgCl2, 0.4 MgSO4, 0.4 KH2PO4, 4.2 NaHCO3, 0.3 Na2HPO4, 5.6 glucose, 20 HEPES, +2.5 mM probenecid for CHO cell lines, pH 7.5 adjusted with 5 M NaOH) for 1 h at room temperature, in the dark, before the media was removed and replaced with HEPES-buffered salt solution in the absence of Fluo-4. […]

Take `CCCCC1CCN(CCCN2C(=O)CCc3ccccc32)CC1` [77-LH-28-1, 1-[3-(4-butyl-1-piperidinyl)propyl]-3,4-dihydro-2[1H]-quinolinone]: the “agonism of M2 receptors” value on human M2 receptors [1] is “No agonism”. Also, on human M3 receptors, the “agonism of M3 receptors” value is “No agonism”. In addition, the “agonism of M4 receptors” value at human M4 receptors [2] is given as “No agonism”. In addition, the “agonism of M5 receptors” value at human M5 receptors [3] is “No agonism”. The IC50 (commonly the concentration that gives 50% inhibition) against human M2 receptors [4] turned out to be 1.19 µM; against human M4 receptors [5] it was 2.03 µM; against human M5 receptors [6], 2.22 µM. Further, the EC50 – broadly, the concentration giving half of the maximal effect – on mouse native M1Rs is 0.156 µM; on human M1Rs it was 0.0222 µM. Further, the results for the Emax at mouse native M1Rs (read-out: Emax for Gαq activation) and on human M1Rs (read-out: efficacy (Emax)) were 92 ± 2% and 98 ± 2%, respectively. The “Gαq activation response in M1R KO mice” value in [7] is recorded as “no response”. The “depolarization of CA1 pyramidal neurons” value in the assay with CA1 pyramidal neurons [8] was 10.4 ± 3.9 mV. Moreover, the “increase in input resistance” value in the assay with CA1 pyramidal neurons [8] is given as 86 ± 51 MΩ. Also, the EPSP amplitude was found to be 194.2 ± 42.0% in the assay with CA1 pyramidal neurons [9] and 118.5 ± 24.7% in [10]. The IPSP amplitude in the assay with CA1 pyramidal neurons [11] came out at 39.1 ± 9.2%; in assay [12] it was 64.0 ± 13.3%. The “cross-reactivity at dopamine D2 receptors” value in the assay on dopamine D2 receptors is reported as “some cross-reactivity”. For the same molecule, the “cross-reactivity at 5-HT2B receptors” value in the assay on 5-HT2B receptors was “some cross-reactivity”.
As to `Cc1cc(F)c2[nH]c(=O)n(C3CCN(C4CCOCC4)CC3)c2c1` [GSK1034702], the “CA1 pyramidal cell firing in vivo” value in [13] is listed as “increase in CA1 pyramidal cell firing”. In the assay on cognition, the effects on cognition entry is recorded as “positive effects on cognition”.
oxotremorine M: the “Emax for Gαq activation” value on mouse native M1Rs (WT hippocampus, percentage of maximal signal with 100 µM oxo-M) is 99 ± 5%. Besides, the “Gαq activation response in M1R KO mice” value in assay [7] is listed as “No response”.
